Consider 9 molecules from BindingDB's records for doi:10.1021/jo015665d (Merck Research Laboratories, 2001).

What is called IC50 is the concentration that gives 50% inhibition. Low readings indicate inhibition by little substance, high ones a need for much substance.

For this assay, the target named is Polymerase acidic protein (Influenza A virus (strain A/Puerto Rico/8/1934 H1N1), UniProt P03433). Nature of the assay: Inhibition of cap 1 ALMV primed Influenza transcriptase.
Take `COCOn1c(=O)c(=Cc2ccc(OC)cc2)[nH]c(=CC(C)C)c1=O`: the IC50 was > 200 µM.
Regarding `COCOn1c(=O)c(=Cc2ccccc2)[nH]c(=Cc2ccc(F)cc2)c1=O`, the IC50 was > 200 µM.
In the case of `COCOn1c(=O)c(=Cc2ccccc2F)[nH]c(=CC(C)C)c1=O` it was > 200 µM; in that of `COCOn1c(=O)c(=Cc2ccccc2)[nH]c(=Cc2ccc(OC)cc2)c1=O`, > 200 µM; in that of `COCOn1c(=O)c(=Cc2ccccc2)[nH]c(=CC(C)C)c1=O`, > 200 µM.
In the case of `COCOn1c(=O)c(=Cc2ccc(F)cc2)[nH]c(=CC(C)C)c1=O` it was > 200 µM; in that of `COCOn1c(=O)c(=Cc2cccc(F)c2)[nH]c(=CC(C)C)c1=O`, > 200 µM; in that of `CC(C)C=c1[nH]c(=Cc2ccc(F)cc2)c(=O)[nH]c1=O` [3-(4-fluorobenzylidene)-5-isobutylpyrazine-2,6(1H,3H)-dione], > 200 µM.
In the case of `COCOn1c(=O)c(=CC(C)C)[nH]c(=CC(C)C)c1=O` [(3Z)-5-isobutyl-1-(methoxymethoxy)-3-(2-methylpropylidene)pyrazine-2,6(1H,3H)-dione] it was > 200 µM.
